Data from patent publication US8895571B2, “Isoindolinone and pyrrolopyridinone derivatives as Akt inhibitors” (Incyte Corporation, priority 2011, dated 2014).

Legend:
[1] = test system: LNCaP cells (human prostate tumor cell line); test: Akt LNCaP proliferation assay (MTS); type: cell-based; details: 48 hours
Protocol: LNCaP cells (human prostate tumor cell line) were plated in 96 well plates (COSTAR, Corning, N.Y.) in 50 μL at 10,000 cells/well in RPMI (Media Tech, Manassas, Va.), 2% fetal bovine serum (Hyclone/Thermo, Logan, Utah) and incubated overnight at 37° C., 5% CO2. […] of compound solution were added at final concentrations of 1000 nM to 0.5 nM in 3 fold dilutions for IC50 determination and plates further incubated for 48 hours. 100 μL of Cell Titer 96® Aqueous reagent, from an MTS colorimetric method for determining the number of viable cells in proliferation (Cell titer 96, Promega, Madison, Wis.) was added for 2 hours at 37° C., 5% CO2. Each plate was mixed well and read on a SpectroMax M5 automated plate reader (Molecular Devices, Sunnyvale Calif.). The ability of the compound to inhibit proliferation was reported as the inhibitor concentration required for 50% inhibition (IC50 values) of total cell proliferation. See Table 8 for data related to compounds of the examples.

Full length Akt2 = molecular target: T1, Full length Akt2 (Homo sapiens, UniProt P31751); test: In vitro Akt kinase enzymatic assay (HTRF), Akt2; type: biochemical; details: 0.6 nM Akt2, substrate solution with 5 mM ATP, 25° C. 1 hr
T1 construct: Full length Akt1 (cat #P2999), Akt2 (cat #PV3184); purchased PerkinElmer PV3184
T1 sequence (P31751 whole entry): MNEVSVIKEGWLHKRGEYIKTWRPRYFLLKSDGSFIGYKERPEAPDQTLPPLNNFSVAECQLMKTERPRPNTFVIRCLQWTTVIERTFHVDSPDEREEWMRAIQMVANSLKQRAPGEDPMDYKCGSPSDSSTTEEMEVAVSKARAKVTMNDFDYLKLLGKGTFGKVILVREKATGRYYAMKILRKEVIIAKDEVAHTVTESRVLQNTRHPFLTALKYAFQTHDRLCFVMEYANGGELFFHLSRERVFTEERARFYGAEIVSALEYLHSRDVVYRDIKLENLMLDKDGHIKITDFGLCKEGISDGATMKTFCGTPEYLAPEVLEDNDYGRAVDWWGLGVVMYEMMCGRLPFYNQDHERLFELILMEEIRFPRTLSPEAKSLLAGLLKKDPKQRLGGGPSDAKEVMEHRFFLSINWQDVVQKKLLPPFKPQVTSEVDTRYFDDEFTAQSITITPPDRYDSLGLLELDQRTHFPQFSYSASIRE
Method in brief: (§1)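 Full-length enzyme (0.4 nM Akt1 or 0.6 nM Akt2/Akt3 in the enzyme solution) was combined with a substrate solution of 0.1 μM ULight-Crosstide plus 5 mM ATP in pH 7.8 HEPES/MgCl2/DTT/Tween20 buffer and reacted 1 hr at 25° C. The EDTA stop contained Eu anti-phospho-Crosstide; IC50 was fitted from 11-point HTRF inhibition curves.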

Full length Akt3 = molecular target: T2, Full length Akt3 (Homo sapiens, UniProt Q9Y243); test: In vitro Akt kinase enzymatic assay (HTRF), Akt3; type: biochemical; details: 0.6 nM Akt3, substrate solution with 5 mM ATP, 25° C. 1 hr
T2 construct: Full length Akt1 (cat #P2999), Akt2 (cat #PV3184), Akt3 (cat #PV3185); purchased PerkinElmer PV3185
T2 sequence (Q9Y243 whole entry): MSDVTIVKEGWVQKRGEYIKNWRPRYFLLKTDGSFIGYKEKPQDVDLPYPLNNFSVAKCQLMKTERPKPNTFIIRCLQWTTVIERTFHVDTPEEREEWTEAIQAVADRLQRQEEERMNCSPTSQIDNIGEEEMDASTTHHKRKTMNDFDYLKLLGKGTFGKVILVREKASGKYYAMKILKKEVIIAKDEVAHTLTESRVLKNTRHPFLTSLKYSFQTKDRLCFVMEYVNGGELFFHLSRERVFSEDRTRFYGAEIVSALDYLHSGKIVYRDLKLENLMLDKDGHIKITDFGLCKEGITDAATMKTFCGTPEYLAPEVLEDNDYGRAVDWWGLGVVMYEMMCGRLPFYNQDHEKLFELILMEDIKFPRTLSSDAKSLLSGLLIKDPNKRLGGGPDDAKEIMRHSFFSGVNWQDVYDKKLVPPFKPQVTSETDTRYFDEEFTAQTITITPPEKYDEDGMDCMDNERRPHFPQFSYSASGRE
Method in brief: as §1

Full length Akt1 = molecular target: T3, Full length Akt1 (Homo sapiens, UniProt P31749); test: In vitro Akt kinase enzymatic assay (HTRF), Akt1; type: biochemical; details: 0.4 nM Akt1, substrate solution with 5 mM ATP, 25° C. 1 hr
T3 construct: Full length Akt1 (cat #P2999); purchased PerkinElmer P2999
T3 sequence (P31749 whole entry): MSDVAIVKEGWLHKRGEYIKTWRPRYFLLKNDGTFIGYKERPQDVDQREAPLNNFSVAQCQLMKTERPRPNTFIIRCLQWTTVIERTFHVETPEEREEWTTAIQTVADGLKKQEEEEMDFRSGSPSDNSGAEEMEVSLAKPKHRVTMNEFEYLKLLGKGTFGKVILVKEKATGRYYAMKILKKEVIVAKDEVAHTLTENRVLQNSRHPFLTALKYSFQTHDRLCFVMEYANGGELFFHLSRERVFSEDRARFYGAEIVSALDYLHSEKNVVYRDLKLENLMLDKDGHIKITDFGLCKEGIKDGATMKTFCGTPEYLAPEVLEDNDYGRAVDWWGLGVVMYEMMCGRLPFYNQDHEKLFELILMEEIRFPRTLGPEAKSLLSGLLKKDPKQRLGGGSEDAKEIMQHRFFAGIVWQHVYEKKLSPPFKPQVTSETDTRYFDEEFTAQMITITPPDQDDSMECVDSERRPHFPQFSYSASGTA
Method in brief: as §1

Full length PKA = molecular target: T4, Full length PKA (Homo sapiens, UniProt P17612); test: PKA in vitro enzymatic assay (HTRF); type: biochemical; details: 0.035 nM enzyme solution, substrate solution with 5 mM ATP, 25° C. 1 hr
T4 construct: Full length PKA (cat #P2912); purchased Invitrogen P2912
Method in brief: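 Reaction buffer was 50 mM HEPES pH 7.8, 10 mM MgCl2, 5 mM DTT and 0.005% Tween20. Enzyme solution was 0.035 nM, and substrate solution was 0.1 μM fluorescein-CREBtide with 5 mM ATP. After 1 h at 25°C, EDTA plus Tb anti-pS133 antibody was added, TR-FRET was read, and IC50 was fitted from 11-point, 3-fold % inhibition curves.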

[2] = 2% fetal bovine serum, class symbols
[3] = given as a bound, final concentrations 1000 nM to 0.5 nM

IC50 [1, 2] [nM] | IC50 (Full length Akt2) [nM] | IC50 (Full length Akt3) [nM] | IC50 (Full length Akt1) [nM] | IC50 (Full length PKA) [µM] | IC50 [1, 3] [nM] | Compound
< 500 | < 500 | < 500 | < 500 | 0.5 to 5 | – | CCOCc1cnn(C)c1-c1ccc2c(c1)CN([C@H](CN)Cc1cc(F)cc(F)c1)C2=O [Example 44, 2-[(1S)-2-amino-1-(3,5-difluorobenzyl)ethyl]-5-(4-ethoxymethyl-1-methyl-1H-pyrazol-5-yl)isoindolin-1-one]
< 500 | < 500 | < 500 | < 500 | 0.5 to 5 | – | C#Cc1cccc(C[C@@H](CN)N2Cc3cc(-c4ccnn4C)ccc3C2=O)c1 [Example 88, 2-[(1S)-2-amino-1-(3-ethynylbenzyl)ethyl]-5-(1-methyl-1H-pyrazol-5-yl)isoindolin-1-one]
< 500 | < 500 | < 500 | < 500 | 0.5 to 5 | – | Cn1ncc(Cl)c1-c1ccc2c(c1)CN([C@H](CN)Cc1cccs1)C2=O [Example 67, 2-[(1S)-2-amino-1-(2-thienylmethyl)ethyl]-5-(4-chloro-1-methyl-1H-pyrazol-5-yl)isoindolin-1-one]
< 500 | < 500 | < 500 | < 500 | > 5 | – | Cn1ncc(Br)c1-c1ccc2c(c1)CN([C@H](CN)Cc1ccccc1)C2=O [Example 57, 2-[(1S)-2-amino-1-benzyl-ethyl]-5-(4-bromo-1-methyl-1H-pyrazol-5-yl)isoindolin-1-one]
< 500 | < 500 | < 500 | < 500 | > 5 | – | CC(C)OCc1cnn(C)c1-c1cc2c(cn1)C(=O)N([C@H](CN)Cc1cccc(F)c1)C2 [Example 95, 2-[(1S)-2-amino-1-(3-fluorobenzyl)ethyl]-6-[4-(2-propoxymethyl)-1-methyl-1H-pyrazol-5-yl]-1,2-dihydro-3H-pyrrolo[3,4-c]pyridin-3-one]
< 500 | < 500 | < 500 | < 500 | > 5 | – | Cn1nccc1-c1ccc2c(c1)CN([C@H](CN)Cc1ccccc1)C2=O [Example 55, 2-[(1S)-2-amino-1-benzyl-ethyl]-5-(1-methyl-1H-pyrazol-5-yl)isoindolin-1-one]
< 500 | < 500 | < 500 | < 500 | > 5 | – | CC(C)OCc1cnn(C)c1-c1ccc2c(c1)CN([C@H](CN)Cc1cccc(F)c1)C2=O [Example 6, 2-[(1S)-2-amino-1-(3-fluorobenzyl)ethyl]-5-[4-(2-propoxymethyl)-1-methyl-1H-pyrazol-5-yl]isoindolin-1-one]
500 to 5000 | < 500 | < 500 | < 500 | 0.5 to 5 | – | Cn1ncc(Cl)c1-c1ccc2c(c1)CN([C@H](CN)Cc1cccc(C(F)(F)F)c1)C2=O (stereo in doubt) [Example 61, 2-{2-amino-1-[3-(trifluoromethyl)benzyl]ethyl}-5-(4-chloro-1-methyl-1H-pyrazol-5-yl)isoindolin-1-one]
< 500 | < 500 | < 500 | < 500 | > 5 | – | Cn1ncc(Cl)c1-c1ccc2c(c1)CN([C@H](CN)Cc1cccnc1)C2=O [Example 65, 2-[(1S)-2-amino-1-(pyridin-3-ylmethyl)ethyl]-5-(4-chloro-1-methyl-1H-pyrazol-5-yl)isoindolin-1-one]
< 500 | < 500 | < 500 | < 500 | > 5 | – | CCn1nccc1-c1ccc2c(c1)CN([C@H](CN)Cc1cc(F)cc(F)c1)C2=O [Example 128, 2-[(1S)-2-amino-1-(3,5-difluorobenzyl)ethyl]-5-(1-ethyl-1H-pyrazol-5-yl)isoindolin-1-one]
< 500 | < 500 | < 500 | < 500 | > 5 | – | CC(C)OCc1cnn(C)c1-c1cc2c(cn1)C(=O)N([C@H](CN)Cc1cc(F)cc(F)c1)C2 [Example 106, 2-[(1S)-2-amino-1-(3,5-difluoro-benzyl)ethyl]-6-[4-(2-propoxy-methyl)-1-methyl-1H-pyrazol-5-yl]-1,2-dihydro-3H-pyrrolo[3,4-c]pyridin-3-one]
< 500 | < 500 | < 500 | < 500 | < 0.5 | – | Cn1ncc(F)c1-c1ccc2c(c1)CN([C@H](CN)Cc1cc(F)cc(F)c1)C2=O [Example 51, 2-[(1S)-2-amino-1-(3,5-difluorobenzyl)ethyl]-5-(4-fluoro-1-methyl-1H-pyrazol-5-yl)isoindolin-1-one]
< 500 | < 500 | < 500 | < 500 | 0.5 to 5 | – | Cc1cnn(C)c1-c1cc2c(cn1)C(=O)N([C@H](CN)Cc1cc(F)cc(F)c1)C2 [Example 103, 2-[(1S)-2-amino-1-(3,5-difluoro-benzyl)ethyl]-6-(4-methyl-1-methyl-1H-pyrazol-5-yl)-1,2-dihydro-3H-pyrrolo[3,4-c]pyridin-3-one]
< 500 | < 500 | < 500 | < 500 | 0.5 to 5 | – | Cn1ncc(Cl)c1-c1cc2c(cn1)C(=O)N([C@H](CN)Cc1cccc(F)c1)C2 [Example 92, 2-[(1S)-2-amino-1-(3-fluorobenzyl)ethyl]-6-(4-chloro-1-methyl-1H-pyrazol-5-yl)-1,2-dihydro-3H-pyrrolo[3,4-c]pyridin-3-one]
– | > 5000 | > 5000 | 500 to 5000 | > 5 | > 1000 | Cn1nccc1-c1ccc2c(c1)CN([C@H](CN)Cc1cccc(-c3cncnc3)c1)C2=O [Example 87, 2-[(1S)-2-amino-1-(3-pyrimidin-5-ylbenzyl)ethyl]-5-(1-methyl-1H-pyrazol-5-yl)isoindolin-1-one]
< 500 | < 500 | < 500 | < 500 | > 5 | – | Cn1ncc(C#N)c1-c1ccc2c(c1)CN([C@H](CN)Cc1cccc(F)c1)C2=O [Example 13, 2-[(1S)-2-amino-1-(3-fluorobenzyl)ethyl]-5-(4-cyano-1-methyl-1H-pyrazol-5-yl)isoindolin-1-one]
> 5000 | 500 to 5000 | 500 to 5000 | < 500 | 0.5 to 5 | – | Cn1ncc(Cl)c1-c1ccc2c(c1)CN([C@H](CN)Cc1cscn1)C2=O [Example 69, 2-[(1S)-2-amino-1-(1,3-thiazol-4-ylmethyl)ethyl]-5-(4-chloro-1-methyl-1H-pyrazol-5-yl)isoindolin-1-one]
– | > 5000 | > 5000 | > 5000 | > 5 | > 1000 | Cn1nccc1-c1ccc2c(c1)CN([C@H](CN)Cc1cccc(-c3ccncc3)c1)C2=O [Example 85, 2-[(1S)-2-amino-1-(3-pyridin-4-ylbenzyl)ethyl]-5-(1-methyl-1H-pyrazol-5-yl)isoindolin-1-one]
500 to 5000 | < 500 | 500 to 5000 | < 500 | > 5 | – | Cn1nccc1-c1ccc2c(c1)CN([C@H](CN)Cc1ccccn1)C2=O [Example 79, 2-[(1S)-2-amino-1-(pyridin-2-ylmethyl)ethyl]-5-(1-methyl-1H-pyrazol-5-yl)isoindolin-1-one]
< 500 | < 500 | < 500 | < 500 | > 5 | – | COCc1cnn(C)c1-c1ccc2c(c1)CN([C@H](CN)Cc1cccc(F)c1)C2=O [Example 4, 2-[(1S)-2-amino-1-(3-fluorobenzyl)ethyl]-5-(4-methoxymethyl-1-methyl-1H-pyrazol-5-yl)isoindolin-1-one]

Compound | IC50 [1, 2] [nM] | IC50 (Full length Akt2) [nM] | IC50 (Full length Akt3) [nM] | IC50 (Full length Akt1) [nM] | IC50 (Full length PKA) [µM] | IC50 [1, 3] [nM]
Cn1ncc(COC2CCC2)c1-c1cc2c(cn1)C(=O)N([C@H](CN)Cc1cccc(F)c1)C2 [Example 97, 2-[(1S)-2-amino-1-(3-fluorobenzyl)ethyl]-6-[4-(cyclobutoxymethyl)-1-methyl-1H-pyrazol-5-yl]-1,2-dihydro-3H-pyrrolo[3,4-c]pyridin-3-one] | < 500 | < 500 | < 500 | < 500 | > 5 | –
